{
  "source": "patent US20140187595A1",
  "about": "(INSERM (Institut National de la Sante et de la Recherche …, priority 2010, published 2014)",
  "key": {"WT MPCs": {"tested_on": "WT MPCs", "experiment": "INSR and cTNT splicing in WT cells", "format": "cell-based, human"}, "[1]": {"tested_on": "pre-mRNA splicing (Ank2, Capzb, INSR, Nfix, Alp)", "settings": "higher dose (600 mg/Kg/day), mouse heart"}, "DM1 myoblasts": {"tested_on": "DM1 myoblasts", "experiment": "Splicing in immortalized myoblasts from DM1 patients", "format": "cell-based, human", "text": "FIGS. 4A and 4B. Effects of AMPK activators on INSR splicing defect in immortalized myoblasts or freshly isolated peripheral blood lymphocytes (PBLs) from DM1 patients."}, "[2]": {"experiment": "Toxicity in mouse at end of metformin treatment", "format": "in vivo, C57BL/6NCr1 mouse", "settings": "200 and 600 mg/Kg/day by gavage", "text": "Enhancement of Ank2 exon 21 and Capzb exon 8 inclusion, INSR exon 11 and Nfix exon […] exclusion or Alp exons 5a and 5b alternative splicing associated to a rescuing effect of DM1 missplicings in mouse skeletal muscle were observed."}, "[3]": {"tested_on": "INSR splicing (±exon 11) in DM1 MPCs", "experiment": "INSR splicing (±exon 11, INSR-A/INSR-B ratio) by quantitative PCR in DM1 MPCs", "format": "cell-based, human"}, "DM1 cells": {"tested_on": "DM1 cells", "experiment": "Toxicity on repeated daily treatment of DM1 cells", "settings": "10 mM repeated daily for up to 10 days"}, "[4]": {"tested_on": "cTNT splicing (±exon 5), pRG6 minigene", "experiment": "cTNT splicing (±exon 5) by RT-PCR in MPCs transfected with pRG6 minigene", "format": "cell-based, human", "settings": "25 mM, DM1 MPCs", "text": "FIG. 1E cTNT splicing (±exon 5) in WT and DM1 MPCs cotransfected with the indicated expression vectors and the pSG (d) or pRG6 (e) minigenes respectively (means ±s.d., n=3).\nTNNT2 (cTNT) was chosen because, opposite to INSR, abnormal splicing in DM1 leads to the inclusion of an exon (exon 5)^4. As TNNT2 is not expressed in MPCs, cells were transfected with the RG6 minigene^13 based upon the chicken orthologue."}, "[5]": {"tested_on": "splicing defects associated with myotonic dystrophy", "settings": "Warf et al. 2009; cited from earlier work"}},
  "data": [
    {"smiles": "CN(C)C(=N)N=C(N)N", "note": "[metformin]", "values": [
      {"measurement": "\"MBNL1-related\" splicing of the two genes (INSR, cTNT)", "setting": "WT MPCs", "result": "efficient in facilitating"},
      {"measurement": "INSR exon 11 exclusion in the heart", "setting": "[1]", "result": "enhancement of INSR exon 11 exclusion was also observed"},
      {"measurement": "INSR transcript exon 11", "setting": "DM1 myoblasts", "result": "exon 11 inclusion"},
      {"measurement": "SERCA1 transcript exon 22", "setting": "DM1 myoblasts", "result": "exon 22 inclusion"},
      {"measurement": "ZASP transcript exon 10", "setting": "DM1 myoblasts", "result": "exon 10 skipping"},
      {"measurement": "endogenous human cTNT transcript exon 5", "setting": "DM1 myoblasts", "result": "exon 5 skipping"},
      {"measurement": "toxicity at the end of the treatment period", "setting": "[2]", "result": "No sign of toxicity"},
      {"measurement": "corrective effect on INSR splicing after repeated treatment", "setting": "[3]; 10 mM daily for up to 10 days", "result": "maintained corrective effect"},
      {"measurement": "INSR splicing (±exon 11) rescue", "setting": "[3]; 24 h-treatment, increasing concentrations", "result": "partially rescues"},
      {"measurement": "toxicity", "setting": "DM1 cells", "result": "no observed toxicity"},
      {"measurement": "exogenous cTNT splicing (±exon 5)", "setting": "[4]", "result": "decreased inclusion of exon 5"},
      {"measurement": "exogenous cTNT splicing (±exon 5)", "setting": "[4]; listed as Metformin", "result": "restores"}
    ]},
    {"smiles": "N=C(N)c1ccc(OCCCCCOc2ccc(C(=N)N)cc2)cc1", "note": "[Pentamidine, pentamidine]", "values": [
      {"measurement": "splicing defects associated with myotonic dystrophy", "setting": "[5]", "result": "reverses the splicing defects"}
    ]}
  ]
}
